Reference: US9493446B2, “Orexin receptor antagonists which are [ortho bi-(hetero-)aryl]-[2-(meta bi-(hetero-)aryl)-pyrrolidin-1-yl]-methanone derivatives” (Actelion Pharmaceuticals Ltd, priority 2012, dated 2016)
Where two headings read alike, the source gives them in different places.

What was measured:
human orexin-2 receptor = human orexin-2 receptor (Homo sapiens (Human), UniProt O43614); assay: Intracellular calcium measurement (FLIPR), CHO cells expressing human orexin-2 receptor, 3 nM orexin-A; assay type: cell-based; settings: read-out: IC50 OX2
In short: (§1)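 CHO cells stably expressing each receptor were loaded with 3 μM fluo-4 AM plus 5 mM probenecid for 50 min at 37 °C, then equilibrated 30 min at rt.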

orexin-1 = orexin-1 (Homo sapiens (Human), UniProt O43613); assay: Intracellular calcium measurement (FLIPR), CHO cells expressing human orexin-1 receptor, 3 nM orexin-A; assay type: cell-based; settings: read-out: IC50 OX1
In short: as §1

[1] = CHO cells expressing human orexin-2 receptor, FLIPR, 3 nM orexin-A, geometric mean if determined several times
[2] = CHO cells expressing human orexin-1 receptor, FLIPR, 3 nM orexin-A, geometric mean if determined several times

Chain of human orexin-2 receptor (O43614 whole entry): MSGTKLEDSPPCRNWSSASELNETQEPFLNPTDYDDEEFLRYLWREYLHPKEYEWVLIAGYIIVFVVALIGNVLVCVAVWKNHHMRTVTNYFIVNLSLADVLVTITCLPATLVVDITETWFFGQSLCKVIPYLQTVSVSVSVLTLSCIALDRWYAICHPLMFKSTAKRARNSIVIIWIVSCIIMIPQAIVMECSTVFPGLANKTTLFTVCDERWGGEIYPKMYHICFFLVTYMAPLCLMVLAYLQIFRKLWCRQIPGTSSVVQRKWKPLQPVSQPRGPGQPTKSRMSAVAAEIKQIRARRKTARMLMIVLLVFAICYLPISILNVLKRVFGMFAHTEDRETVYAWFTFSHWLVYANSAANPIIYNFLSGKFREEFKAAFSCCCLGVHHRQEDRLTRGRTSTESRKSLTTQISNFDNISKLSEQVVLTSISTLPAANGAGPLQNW
Chain of orexin-1 (O43613 whole entry): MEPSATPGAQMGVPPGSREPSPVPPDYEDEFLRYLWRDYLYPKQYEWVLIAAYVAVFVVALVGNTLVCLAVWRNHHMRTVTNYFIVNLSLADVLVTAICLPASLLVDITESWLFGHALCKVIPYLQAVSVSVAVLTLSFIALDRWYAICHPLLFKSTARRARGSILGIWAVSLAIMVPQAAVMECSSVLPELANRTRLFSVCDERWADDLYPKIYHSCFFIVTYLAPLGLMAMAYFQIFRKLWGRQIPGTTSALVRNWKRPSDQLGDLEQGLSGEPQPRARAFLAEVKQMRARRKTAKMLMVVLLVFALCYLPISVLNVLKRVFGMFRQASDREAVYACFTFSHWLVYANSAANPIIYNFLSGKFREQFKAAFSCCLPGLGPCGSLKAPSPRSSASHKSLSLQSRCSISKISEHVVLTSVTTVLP

Row | Structure (SMILES) | IC50 (human orexin-2 receptor; [1]) [nM] | IC50 (orexin-1; [2]) [nM] | IC50 (human orexin-2 receptor) [nM] | IC50 (orexin-1) [nM]
1 | COc1c(F)cccc1-c1noc([C@@H]2CCCN2C(=O)c2cccc(C)c2-n2nccn2)n1 [compound 197, {(S)-2-[3-(3-Fluoro-2-methoxy-phenyl)-[1,2,4]oxadiazol-5-yl]-pyrrolidin-1-yl}-(3-methyl-2-[1,2,3]triazol-2-yl-phenyl)-methanone] | 93 | 354 | – | –
2 | COc1ccc(-n2nccn2)c(C(=O)N2CCC[C@H]2c2nc(-c3cccc(F)c3OC)no2)c1 [compound 199, {(S)-2-[3-(3-Fluoro-2-methoxy-phenyl)-[1,2,4]oxadiazol-5-yl]-pyrrolidin-1-yl}-(5-methoxy-2-[1,2,3]triazol-2-yl-phenyl)-methanone] | 12 | 83 | – | –
3 | COc1c(F)cccc1-c1noc([C@@H]2CCCN2C(=O)c2cc(F)ccc2-n2nccn2)n1 [compound 200, {(S)-2-[3-(3-Fluoro-2-methoxy-phenyl)-[1,2,4]oxadiazol-5-yl]-pyrrolidin-1-yl}-(5-fluoro-2-[1,2,3]triazol-2-yl-phenyl)-methanone] | 32 | 307 | – | –
4 | COc1cc(C(=O)N2CCC[C@H]2c2nc(-c3cccc(F)c3OC)no2)c(-n2nccn2)cc1C [compound 201, {(S)-2-[3-(3-Fluoro-2-methoxy-phenyl)-[1,2,4]oxadiazol-5-yl]-pyrrolidin-1-yl}-(5-methoxy-4-methyl-2-[1,2,3]triazol-2-yl-phenyl)-methanone] | 2 | 27 | – | –
5 | COc1c(F)cccc1-c1noc([C@@H]2CCCN2C(=O)c2cccc(F)c2-c2ccn[nH]2)n1 [compound 202, {(S)-2-[3-(3-Fluoro-2-methoxy-phenyl)-[1,2,4]oxadiazol-5-yl]-pyrrolidin-1-yl}-[3-fluoro-2-(2H-pyrazol-3-yl)-phenyl]-methanone] | 10 | 53 | – | –
6 | COc1c(F)cccc1-c1noc([C@@H]2CCCN2C(=O)c2cc(C)ccc2-c2ccccn2)n1 [compound 203, {(S)-2-[3-(3-Fluoro-2-methoxy-phenyl)-[1,2,4]oxadiazol-5-yl]-pyrrolidin-1-yl}-(5-methyl-2-pyridin-2-yl-phenyl)-methanone] | 16 | 56 | – | –
7 | COc1c(F)cccc1-c1noc([C@@H]2CCCN2C(=O)c2ccc(Cl)cc2-n2nccn2)n1 [compound 204] | – | 65 | 10 | –
8 | COc1c(F)cccc1-c1noc([C@@H]2CCCN2C(=O)c2ccc(C(F)(F)F)cc2-n2nccn2)n1 [compound 205, {(S)-2-[3-(3-Fluoro-2-methoxy-phenyl)-[1,2,4]oxadiazol-5-yl]-pyrrolidin-1-yl}-(2-[1,2,3]triazol-2-yl-4-trifluoromethyl-phenyl)-methanone] | 43 | 340 | – | –
9 | COc1cc(C(=O)N2CCC[C@H]2c2nc(-c3cccc(F)c3OC)no2)c(-n2nccn2)cc1F [compound 206, {(S)-2-[3-(3-Fluoro-2-methoxy-phenyl)-[1,2,4]oxadiazol-5-yl]-pyrrolidin-1-yl}-(4-fluoro-5-methoxy-2-[1,2,3]triazol-2-yl-phenyl)-methanone] | 10 | 409 | – | –
10 | COc1c(F)cccc1-c1noc([C@@H]2CCCN2C(=O)c2cc(F)cc(C)c2-n2nccn2)n1 [compound 207, {(S)-2-[3-(3-Fluoro-2-methoxy-phenyl)-[1,2,4]oxadiazol-5-yl]-pyrrolidin-1-yl}-(5-fluoro-3-methyl-2-[1,2,3]triazol-2-yl-phenyl)-methanone] | 565 | 1810 | – | –
11 | COc1cc(C(=O)N2CCC[C@H]2c2nc(-c3cccc(F)c3OC)no2)c(-n2nccn2)cc1OC [compound 208, (4,5-Dimethoxy-2-[1,2,3]triazol-2-yl-phenyl)-{(S)-2-[3-(3-fluoro-2-methoxy-phenyl)-[1,2,4]oxadiazol-5-yl]-pyrrolidin-1-yl}-methanone] | 20 | 225 | – | –
12 | CCOc1ncccc1-c1noc([C@@H]2CCCN2C(=O)c2cc(C)cc(C)c2-n2nccn2)n1 [compound 209, (3,5-Dimethyl-2-[1,2,3]triazol-2-yl-phenyl)-{(S)-2-[3-(2-ethoxy-pyridin-3-yl)-[1,2,4]oxadiazol-5-yl]-pyrrolidin-1-yl}-methanone] | 21 | 56 | – | –
13 | CCOc1ncccc1-c1noc([C@@H]2CCCN2C(=O)c2ccc(C)cc2-n2nccn2)n1 [compound 211, {(S)-2-[3-(2-Ethoxy-pyridin-3-yl)-[1,2,4]oxadiazol-5-yl]-pyrrolidin-1-yl}-(4-methyl-2-[1,2,3]triazol-2-yl-phenyl)-methanone] | 37 | 81 | – | –
14 | CCOc1ncccc1-c1noc([C@@H]2CCCN2C(=O)c2cc(C)c(C)cc2-n2nccn2)n1 [compound 212, (4,5-Dimethyl-2-[1,2,3]triazol-2-yl-phenyl)-{(S)-2-[3-(2-ethoxy-pyridin-3-yl)-[1,2,4]oxadiazol-5-yl]-pyrrolidin-1-yl}-methanone] | 3 | 6 | – | –
15 | CCOc1ncccc1-c1noc([C@@H]2CCCN2C(=O)c2nc(C)ccc2-n2nccn2)n1 [compound 213, {(S)-2-[3-(2-Ethoxy-pyridin-3-yl)-[1,2,4]oxadiazol-5-yl]-pyrrolidin-1-yl}-(6-methyl-3-[1,2,3]triazol-2-yl-pyridin-2-yl)-methanone] | 46 | 169 | – | –
16 | CCOc1ncccc1-c1noc([C@@H]2CCCN2C(=O)c2cc(OC)c(C)cc2-n2nccn2)n1 [compound 215, {(S)-2-[3-(2-Ethoxy-pyridin-3-yl)-[1,2,4]oxadiazol-5-yl]-pyrrolidin-1-yl}-(5-methoxy-4-methyl-2-[1,2,3]triazol-2-yl-phenyl)-methanone] | 3 | 18 | – | –
17 | CCOc1ncccc1-c1noc([C@@H]2CCCN2C(=O)c2cccc(F)c2-c2ccn[nH]2)n1 [compound 216, {(S)-2-[3-(2-Ethoxy-pyridin-3-yl)-[1,2,4]oxadiazol-5-yl]-pyrrolidin-1-yl}-[3-fluoro-2-(2H-pyrazol-3-yl)-phenyl]-methanone] | 27 | 76 | – | –
18 | CCOc1ncccc1-c1noc([C@@H]2CCCN2C(=O)c2cc(C)ccc2-c2ccccn2)n1 [compound 217, {(S)-2-[3-(2-Ethoxy-pyridin-3-yl)-[1,2,4]oxadiazol-5-yl]-pyrrolidin-1-yl}-(5-methyl-2-pyridin-2-yl-phenyl)-methanone] | 14 | 40 | – | –
19 | CCOc1ncccc1-c1noc([C@@H]2CCCN2C(=O)c2ccccc2-n2nccn2)n1 [compound 218, {(S)-2-[3-(2-Ethoxy-pyridin-3-yl)-[1,2,4]oxadiazol-5-yl]-pyrrolidin-1-yl}-(2-[1,2,3]triazol-2-yl-phenyl)-methanone] | 99 | 331 | – | –
20 | CCOc1ncccc1-c1noc([C@@H]2CCCN2C(=O)c2cc(OC)ccc2-n2nccn2)n1 [compound 220, {(S)-2-[3-(2-Ethoxy-pyridin-3-yl)-[1,2,4]oxadiazol-5-yl]-pyrrolidin-1-yl}-(5-methoxy-2-[1,2,3]triazol-2-yl-phenyl)-methanone] | 16 | 53 | – | –
21 | CCOc1ncccc1-c1noc([C@@H]2CCCN2C(=O)c2ccc(C(F)(F)F)cc2-n2nccn2)n1 [compound 222, {(S)-2-[3-(2-Ethoxy-pyridin-3-yl)-[1,2,4]oxadiazol-5-yl]-pyrrolidin-1-yl}-(2-[1,2,3]triazol-2-yl-4-trifluoromethyl-phenyl)-methanone] | 121 | 351 | – | –
22 | CCOc1ncccc1-c1noc([C@@H]2CCCN2C(=O)c2cc(OC)c(F)cc2-n2nccn2)n1 [compound 223, {(S)-2-[3-(2-Ethoxy-pyridin-3-yl)-[1,2,4]oxadiazol-5-yl]-pyrrolidin-1-yl}-(4-fluoro-5-methoxy-2-[1,2,3]triazol-2-yl-phenyl)-methanone] | 17 | 253 | – | –
23 | CCOc1ncccc1-c1noc([C@@H]2CCCN2C(=O)c2cc(C)ccc2-c2ncco2)n1 [compound 224, {(S)-2-[3-(2-Ethoxy-pyridin-3-yl)-[1,2,4]oxadiazol-5-yl]-pyrrolidin-1-yl}-(5-methyl-2-oxazol-2-yl-phenyl)-methanone] | 6 | 19 | – | –
24 | CCOc1ncccc1-c1noc([C@@H]2CCCN2C(=O)c2cc(F)cc(C)c2-n2nccn2)n1 [compound 225, {(S)-2-[3-(2-Ethoxy-pyridin-3-yl)-[1,2,4]oxadiazol-5-yl]-pyrrolidin-1-yl}-(5-fluoro-3-methyl-2-[1,2,3]triazol-2-yl-phenyl)-methanone] | 600 | 964 | – | –
25 | CCOc1ncccc1-c1noc([C@@H]2CCCN2C(=O)c2cc(OC)c(OC)cc2-n2nccn2)n1 [compound 226, (4,5-Dimethoxy-2-[1,2,3]triazol-2-yl-phenyl)-{(S)-2-[3-(2-ethoxy-pyridin-3-yl)-[1,2,4]oxadiazol-5-yl]-pyrrolidin-1-yl}-methanone] | 148 | 160 | – | –
26 | COc1ccccc1-c1noc([C@@H]2CCCN2C(=O)c2ccccc2-n2nccn2)n1 [compound 227, {(S)-2-[3-(2-Methoxy-phenyl)-[1,2,4]oxadiazol-5-yl]-pyrrolidin-1-yl}-(2-[1,2,3]triazol-2-yl-phenyl)-methanone] | 425 | 852 | – | –
27 | COc1ccccc1-c1noc([C@@H]2CCCN2C(=O)c2cc(Cl)ccc2-n2nccn2)n1 [compound 228] | 134 | – | – | 272
28 | COc1ccccc1-c1noc([C@@H]2CCCN2C(=O)c2ccc(C)cc2-n2nccn2)n1 [compound 229, {(S)-2-[3-(2-Methoxy-phenyl)-[1,2,4]oxadiazol-5-yl]-pyrrolidin-1-yl}-(4-methyl-2-[1,2,3]triazol-2-yl-phenyl)-methanone] | 240 | 163 | – | –
29 | COc1ccccc1-c1noc([C@@H]2CCCN2C(=O)c2cc(C)c(C)cc2-n2nccn2)n1 [compound 230, (4,5-Dimethyl-2-[1,2,3]triazol-2-yl-phenyl)-{(S)-2-[3-(2-methoxy-phenyl)-[1,2,4]oxadiazol-5-yl]-pyrrolidin-1-yl}-methanone] | 15 | 23 | – | –
